Assays:
[1] = biological target: T1, human adenosine A2A receptor (Homo sapiens, UniProt P29274); assay: Inhibition binding assay, human adenosine A2A receptor membranes, [3H]ZM241385; details: 1 nM [3H]ZM241385, HEK293-hA2A membranes, 25° C., 1 h; IC50 converted to Ki with Cheng-Prusoff; read-out: A2A pKi (converted)
T1 construct: expressed in transfected cells; host or cells: HEK293 cells infected with BacMam
How it was run: (§1)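 Membranes from BacMam-infected HEK293 cells (0.2 μg A2A, 1.4 μg A1) incubated 1 h at 25° C with test compound and 1 nM [3H]ZM241385 (A2A; 50 mM Tris-HCl pH 7.4) or [3H]DPCPX (A1; plus 100 mM NaCl, 10 mM MgCl2). Nonspecific: 1 μM CGS15943 or DPCPX. Filtration, scintillation; IC50 converted to Ki via Cheng-Prusoff.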

[2] = biological target: T2, human adenosine A1 receptor (Homo sapiens, UniProt P30542); assay: Inhibition binding assay, human adenosine A1 receptor membranes, [3H]DPCPX; details: 1 nM [3H]DPCPX, 25° C., 1 h; IC50 converted to Ki with Cheng-Prusoff; read-out: A1 pKi (converted)
T2 construct: expressed in transfected cells; host or cells: HEK293 cells infected with BacMam (the same paragraph also labels the preparation CHO-hA1)
T2 sequence (P30542 1-326): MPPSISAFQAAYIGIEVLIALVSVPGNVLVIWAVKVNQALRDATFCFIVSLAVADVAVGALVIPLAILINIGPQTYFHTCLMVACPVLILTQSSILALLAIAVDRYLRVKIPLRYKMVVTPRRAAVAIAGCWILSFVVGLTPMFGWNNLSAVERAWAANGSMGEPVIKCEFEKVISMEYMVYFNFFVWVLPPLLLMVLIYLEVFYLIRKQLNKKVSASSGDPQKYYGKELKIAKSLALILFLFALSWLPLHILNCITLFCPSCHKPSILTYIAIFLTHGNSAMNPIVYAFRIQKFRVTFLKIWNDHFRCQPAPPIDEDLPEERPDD
How it was run: as §1

T1 sequence (P29274 whole entry): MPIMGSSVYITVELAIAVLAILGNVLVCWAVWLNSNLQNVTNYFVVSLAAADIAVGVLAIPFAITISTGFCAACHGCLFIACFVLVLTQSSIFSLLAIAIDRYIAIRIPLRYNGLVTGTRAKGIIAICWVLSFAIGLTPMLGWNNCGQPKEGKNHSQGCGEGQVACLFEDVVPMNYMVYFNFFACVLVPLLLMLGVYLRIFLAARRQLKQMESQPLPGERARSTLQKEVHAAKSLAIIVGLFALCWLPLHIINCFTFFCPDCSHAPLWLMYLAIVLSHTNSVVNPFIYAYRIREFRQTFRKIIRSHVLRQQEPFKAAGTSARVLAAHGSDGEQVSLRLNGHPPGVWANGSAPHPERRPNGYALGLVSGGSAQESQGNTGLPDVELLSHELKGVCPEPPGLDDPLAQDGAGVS

Ki [1]	Ki [2]	SMILES
1.26 nM	631 nM	Cc1cc(-c2c(-c3ccc(F)cc3)nc(N)n3c(=O)n(CCC(F)(F)F)nc23)cc(C)n1 [Example 2-33, 5-amino-8-(2,6-dimethyl-4-pyridyl)-7-(4-fluorophenyl)-2-(3,3,3-trifluoropropyl)-[1,2,4]triazolo[4,3-c]pyrimidin-3-one]
15.8 nM	> 3980 nM	Cc1cc(-c2c(-c3ccc(F)cc3F)nc(N)n3c(=O)n(CCC(F)(F)F)nc23)cc(C)n1 [Example 2-34, 5-amino-7-(2,4-difluorophenyl)-8-(2,6-dimethyl-4-pyridyl)-2-(3,3,3-trifluoropropyl)-[1,2,4]triazolo[4,3-c]pyrimidin-3-one]
20 nM	> 3160 nM	Cc1cc(-c2c(-c3ccc(C#N)cc3)nc(N)n3c(=O)n(CCC(F)(F)F)nc23)cc(C)n1 [Example 2-36, 4-[5-amino-8-(2,6-dimethyl-4-pyridyl)-3-oxo-2-(3,3,3-trifluoropropyl)-[1,2,4]triazolo[4,3-c]pyrimidin-7-yl]benzonitrile]
39.8 nM	> 3980 nM	Cc1cc(-c2c(-c3ccncc3)nc(N)n3c(=O)n(CCC(F)(F)F)nc23)cc(C)n1 [Example 2-38, 5-amino-8-(2,6-dimethyl-4-pyridyl)-7-(4-pyridyl)-2-(3,3,3-trifluoropropyl)-[1,2,4]triazolo[4,3-c]pyrimidin-3-one]
50.1 nM	> 3980 nM	Cc1cc(-c2c(-c3cccnc3)nc(N)n3c(=O)n(CCC(F)(F)F)nc23)cc(C)n1 [Example 2-39, 5-amino-8-(2,6-dimethyl-4-pyridyl)-7-(3-pyridyl)-2-(3,3,3-trifluoropropyl)-[1,2,4]triazolo[4,3-c]pyrimidin-3-one]
2 nM	501 nM	Cc1cc(-c2c(-c3ccc(C)o3)nc(N)n3c(=O)n(CCC(F)(F)F)nc23)cc(C)n1 [Example 2-43, 5-amino-8-(2,6-dimethyl-4-pyridyl)-7-(5-methyl-2-furyl)-2-(3,3,3-trifluoropropyl)-[1,2,4]triazolo[4,3-c]pyrimidin-3-one]
0.251 nM	316 nM	Nc1nc(-c2ccccc2)c(-c2cc(Cl)nc(CO)c2)c2nn(CCC(F)(F)F)c(=O)n12 [Example 2-45, 5-amino-8-[2-chloro-6-(hydroxymethyl)-4-pyridyl]-7-phenyl-2-(3,3,3-trifluoropropyl)-[1,2,4]triazolo[4,3-c]pyrimidin-3-one]
1.58 nM	> 3980 nM	COc1cc(-c2c(-c3ccc(F)cc3)nc(N)n3c(=O)n(CCC(F)(F)F)nc23)cc(CO)n1 [Example 2-47, 5-amino-7-(4-fluorophenyl)-8-[2-(hydroxymethyl)-6-methoxy-4-pyridyl]-2-(3,3,3-trifluoropropyl)-[1,2,4]triazolo[4,3-c]pyrimidin-3-one]
0.794 nM	6.31 nM	Cc1cc(-c2c(-c3ccccc3)nc(N)n3c(=O)n(CCC(F)(F)F)nc23)cc(Cl)n1 [Example 2-48, 5-amino-8-(2-chloro-6-methyl-4-pyridyl)-7-phenyl-2-(3,3,3-trifluoropropyl)-[1,2,4]triazolo[4,3-c]pyrimidin-3-one]
39.8 nM	501 nM	Cc1cc(-c2c(-c3ccc(F)cc3)nc(N)n3c(=O)n(C)nc23)cc(Cl)n1 [Example 2-49, 5-amino-8-(2-chloro-6-methyl-4-pyridyl)-7-(4-fluorophenyl)-2-methyl-[1,2,4]triazolo[4,3-c]pyrimidin-3-one]
0.794 nM	79.4 nM	Cc1cc(-c2c(-c3ccc(F)cc3)nc(N)n3c(=O)n(CCC(F)(F)F)nc23)cc(Cl)n1 [Example 2-50, 5-amino-8-(2-chloro-6-methyl-4-pyridyl)-7-(4-fluorophenyl)-2-(3,3,3-trifluoropropyl)-[1,2,4]triazolo[4,3-c]pyrimidin-3-one]
0.631 nM	200 nM	COC(=O)c1cc(-c2c(-c3ccccc3)nc(N)n3c(=O)n(CCC(F)(F)F)nc23)cc(C)n1 [Example 2-52, methyl 4-[5-amino-3-oxo-7-phenyl-2-(3,3,3-trifluoropropyl)-[1,2,4]triazolo[4,3-c]pyrimidin-8-yl]-6-methyl-pyridine-2-carboxylate]
251 nM	> 3160 nM	Cc1cc(-c2c(-c3ccccc3)nc(N)n3c(=O)n(C4CCCNC4)nc23)cc(C)n1 (centres unmarked) [Example 2-55, 5-amino-8-(2,6-dimethyl-4-pyridyl)-7-phenyl-2-(3-piperidyl)-[1,2,4]triazolo[4,3-c]pyrimidin-3-one]
50.1 nM	1000 nM	Cc1cc(-c2c(-c3ccc(F)cc3)nc(N)n3c(=O)n(CCC(F)(F)F)nc23)cc(C)[n+]1[O-] [Example 2-58, 5-amino-8-(2,6-dimethyl-1-oxido-pyridin-1-ium-4-yl)-7-(4-fluorophenyl)-2-(3,3,3-trifluoropropyl)-[1,2,4]triazolo[4,3-c]pyrimidin-3-one]
3.98 nM	316 nM	Cc1cc(-c2c(-c3ccccc3)nc(N)n3c(=O)n(CC45CC(F)(C4)C5)nc23)cc(CO)n1 [Example 2-59, 5-amino-2-[(3-fluoro-1-bicyclo[1.1.1]pentanyl)methyl]-8-[2-(hydroxymethyl)-6-methyl-4-pyridyl]-7-phenyl-[1,2,4]triazolo[4,3-c]pyrimidin-3-one]
1.26 nM	631 nM	[2H]c1c([2H])c([2H])c(-c2nc(N)n3c(=O)n(CCC(F)(F)F)nc3c2-c2cc(C)nc(CO)c2)c([2H])c1[2H] [Example 2-61, 5-amino-8-[2-(hydroxymethyl)-6-methyl-4-pyridyl]-7-(2,3,4,5,6-pentadeuteriophenyl)-2-(3,3,3-trifluoropropyl)-[1,2,4]triazolo[4,3-c]pyrimidin-3-one]
0.316 nM	31.6 nM	Cc1cc(-c2c(-c3ccccc3)nc(N)n3c(=O)n(CC45C6C7C8C6C4C8C75)nc23)cc(CO)n1 (centres unmarked) [Example 2-62, 5-amino-2-(cuban-1-ylmethyl)-8-[2-(hydroxymethyl)-6-methyl-4-pyridyl]-7-phenyl-[1,2,4]triazolo[4,3-c]pyrimidin-3-one]
1.26 nM	316 nM	Cc1cc(-c2c(-c3ccccc3)nc(N)n3c(=O)n(CC45CC(C4)C5)nc23)cc(CO)n1 [Example 2-63, 5-amino-2-(3-bicyclo[1.1.1]pentanylmethyl)-8-[2-(hydroxymethyl)-6-methyl-4-pyridyl]-7-phenyl-[1,2,4]triazolo[4,3-c]pyrimidin-3-one]
12.6 nM	501 nM	Cc1cc(-c2c(-c3ccccc3)nc(N)n3c(=O)n(C[C@H]4CN(C(=O)OC(C)(C)C)CCO4)nc23)cc(C)n1 [Example 2-65, tert-butyl (R)-2-((5-amino-8-(2,6-dimethylpyridin-4-yl)-3-oxo-7-phenyl-[1,2,4]triazolo[4,3-c]pyrimidin-2(3H)-yl)methyl)morpholine-4-carboxylate]
6.31 nM	1000 nM	Cc1cc(-c2c(-c3ccccc3)nc(N)n3c(=O)n(CC4CCN(C(=O)OC(C)(C)C)CC4)nc23)cc(C)n1 [Example 2-67, tert-butyl 4-[[5-amino-8-(2,6-dimethyl-4-pyridyl)-3-oxo-7-phenyl-[1,2,4]triazolo[4,3-c]pyrimidin-2-yl]methyl]piperidine-1-carboxylate]
398 nM	> 3160 nM	Cc1cc(-c2c(-c3ccccc3)nc(N)n3c(=O)n(CC4CCNCC4)nc23)cc(C)n1 [Example 2-68, 5-amino-8-(2,6-dimethyl-4-pyridyl)-7-phenyl-2-(4-piperidylmethyl)-[1,2,4]triazolo[4,3-c]pyrimidin-3-one]
6.31 nM	398 nM	Cc1cc(-c2c(-c3ccccc3)nc(N)n3c(=O)n(C[C@@H]4CN(C(=O)OC(C)(C)C)CCO4)nc23)cc(C)n1 [Example 2-69, tert-butyl (2S)-2-[[5-amino-8-(2,6-dimethyl-4-pyridyl)-3-oxo-7-phenyl-[1,2,4]triazolo[4,3-c]pyrimidin-2-yl]methyl]morpholine-4-carboxylate]
3.98 nM	501 nM	Cc1cc(-c2c(-c3ccccc3)nc(N)n3c(=O)n(C4CCCN(C)C4)nc23)cc(C)n1 (centres unmarked) [Example 2-70, 5-amino-8-(2,6-dimethyl-4-pyridyl)-2-(1-methyl-3-piperidyl)-7-phenyl-[1,2,4]triazolo[4,3-c]pyrimidin-3-one]
15.8 nM	631 nM	Cc1cc(-c2c(-c3ccccc3)nc(N)n3c(=O)n(C[C@@H]4CN(C)CCO4)nc23)cc(C)n1 [Example 2-72, 5-amino-8-(2,6-dimethyl-4-pyridyl)-2-[[(2S)-4-methylmorpholin-2-yl]methyl]-7-phenyl-[1,2,4]triazolo[4,3-c]pyrimidin-3-one]
15.8 nM	631 nM	Cc1cc(-c2c(-c3ccccc3)nc(N)n3c(=O)n(C[C@H]4COCCN4)nc23)cc(C)n1 [Example 2-76, 5-amino-8-(2,6-dimethyl-4-pyridyl)-2-[[(3S)-morpholin-3-yl]methyl]-7-phenyl-[1,2,4]triazolo[4,3-c]pyrimidin-3-one]

— patent US12528815B2, “5-amino-8-(4-pyridyl)-[1,2,4]triazolo[4,3-c]pyrimidin-3-one compounds for use against cancer” (Nxera Pharma UK Limited, priority 2020, dated 2026)
